How the values were obtained:
[1] = test system: TNF-α induced IL-8 production in human whole blood; assay: Inhibition of TNF-α induced IL-8 in 50% human whole blood; format: cell-based; conditions: 1 nM TNF-α, secreted IL-8, 16-18 hours, read-out: WB TNF/IL8 IC50
Protocol: Inhibition of TNF-α Induced IL-8 in 50% Human Whole Blood
Test compounds were evaluated in vitro for the ability to inhibit the production of secreted IL-8 by whole blood activated with TNF-α. Fresh human whole blood was obtained from healthy, non-medicated volunteers in sodium heparin tubes.
Compound Dilution—Assay Procedure
Test compounds are serially diluted 1:3 in DMSO and then diluted 1:250 into R10 (RPMI 1640, 10% human serum AB, 1× pen/strep/glutamine) to the 4× working concentration to be used in the assay. 100 ul heparinized whole blood is plated into wells of 96 well flat bottom plates. 50 ul of either 4× compound or DMSO control (Final DMSO concentration is 0.1%) are added to the appropriate wells. Plates are incubated for 1 hour at 37 degrees Celsius. 50 ul of 4×TNF-α (4 nM TNF-α, for a final concentration of 1 nM) or control (media alone) is added to the appropriate wells (Total volume=200 ul). Plates are incubated overnight (16-18 hours). 100 ul of supernatant is collected and stored in 96-well round bottom polypropylene plates at −80 degrees Celsius or assayed immediately for IL-8.
Cytokines are measured on antibody (Ab) sandwich ECL based 96-well detection plates. 20 ul of supernatant are added to plate and plate is sealed and shaken at RT for 1 hour. 130 ul of detection Ab cocktail is added and plates are sealed and shaken for 1 hour in the dark at RT. Plates are read on MSD Sector HTS instrument. Data are analyzed and IC50 values generated using Activity Base and Xl-fit programs.

human p38α = human p38α (Homo sapiens, UniProt Q16539); assay: Purified and activated recombinant human p38α assay (HTRF); format: biochemical; conditions: 1 nM p38α, 50 μM ATP, 100 nM GST-ATF2-Avitag, 1 hour at RT, read-out: p38a IC50 IC50
Protocol: Purified and Activated Recombinant Human p38α Assay
Kinase Reaction Buffer: Kinase reaction buffer for p38α HTRF assays consists of 50 mM Tris-pH 7.5, 5 mM MgCl2, 0.1 mg/mL BSA, 100 μM Na3VO4 and 0.5 mM DTT.
HTRF Detection Buffer: HTRF detection buffer contains 100 mM HEPES-pH 7.5, 100 mM NaCl, 0.1% BSA, 0.05% Tween-20, and 10 mM EDTA.
Serial Dilution of Compounds: Compounds were dissolved in 100% DMSO and serially diluted (3 fold, 10 point) in a polypropylene 96-well microtiter plate (drug plate). The final starting concentration of compounds in the p38α enzymatic assays was 1 μM. Columns 6 and 12 (HI controls and LO controls respectively) in the drug plate were reserved as controls and contained only DMSO. Kinase Reaction: The p38α kinase reactions were carried out in a polypropylene 96-well black round bottom assay plate in total volume of 30 μL kinase reaction buffer. Appropriate concentration of purified and activated enzyme (recombinant human) was mixed with indicated concentration of ATP and 100 nM GST-ATF2-Avitag, in the presence or absence (HI control) of Compound. See table below for actual concentrations. In the absence of substrate, the background was measured as LO control. The reaction was allowed to incubate for 1 hour at RT. Assay Reagent Concentrations: The final reagent concentrations were 1 nM p38α and 50 μM ATP. […] After 60 minutes incubation at room temperature, the assay plate was read in a Discovery Plate Reader. The wells were excited with coherent 320 nm light and the ratio of delayed ([…] post excitation) emissions at […] (native europium fluorescence) and 665 nm (europium fluorescence transferred to allophycocyanin—an index of substrate phosphorylation) was determined (Park et al, 1999). Data Analysis: The proportion of substrate phosphorylated in the kinase reaction in the presence of compound compared with that phosphorylated in the presence of DMSO vehicle alone (HI control) was calculated using the formula: % control (POC)=(compound−average LO)/(average HI−average LO)*100. Data (consisting of POC and inhibitor concentration in μM) was fitted to a 4-parameter equation (y=A+((B−A)/(1+((x/C)^D))), where A is the minimum y (POC) value, B is the maximum y (POC), C is the x (compound concentration) at the point of inflection and D is the slope factor, using a Levenburg-Marquardt non-linear regression algorithm.
The inhibition constant (Ki) of the inhibitor was estimated from the IC50 (compound concentration at the point of inflection C) using the Cheng-Prussof equation: Ki=IC50/(1+S/Km), where S is the ATP substrate concentration, and Km is the Michaelis constant for ATP as determined experimentally. All results were expressed as the mean±the standard error of the mean. Data acquisition and non-linear regression algorithms were performed using Activity Base v5.2 and XL-fit software v4.1 respectively. All data was archived using Activity Base v5.2 software.

human p38α, sequence (Q16539 whole entry): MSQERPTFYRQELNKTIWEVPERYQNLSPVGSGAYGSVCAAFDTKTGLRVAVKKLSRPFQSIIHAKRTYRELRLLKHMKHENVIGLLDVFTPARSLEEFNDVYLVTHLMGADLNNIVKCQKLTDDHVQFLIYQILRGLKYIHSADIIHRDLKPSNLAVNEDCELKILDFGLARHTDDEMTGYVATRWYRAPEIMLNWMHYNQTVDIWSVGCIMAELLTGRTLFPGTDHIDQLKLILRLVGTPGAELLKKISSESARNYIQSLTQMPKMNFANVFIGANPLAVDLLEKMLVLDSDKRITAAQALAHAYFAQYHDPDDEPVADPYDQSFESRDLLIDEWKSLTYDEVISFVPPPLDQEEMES

Structure (SMILES): C[C@H](Oc1nncc2cc(Nc3ccc(F)cc3F)ccc12)C(F)(F)F [Example 6b, N-(2,4-difluorophenyl)-1-(((1S)-2,2,2-trifluoro-1-methylethyl)oxy)-6-phthalazinamine]
- IC50 [1]: 89 nM
- IC50 (human p38α): 4.6 nM

Structure (SMILES): Cc1cc(S(C)(=O)=O)ccc1-c1nncc2cc(Nc3ccc(F)cc3)ccc12 [Example 2, N-(4-Fluorophenyl)-1-(2-methyl-4-(methylsulfonyl)phenyl)phthalazin-6-amine]
- IC50 [1]: 0.8 nM
- IC50 (human p38α): 0.3 nM

Structure (SMILES): CC(c1nncc2cc(Nc3ccc(F)cc3)ccc12)C(F)(F)F (stereo not drawn) [Example 5, N-(4-Fluorophenyl)-1-(2,2,2-trifluoro-1-methylethyl)-6-phthalazinamine]
- IC50 [1]: 3.9 nM
- IC50 (human p38α): 1 nM

Structure (SMILES): Cc1ccccc1-c1nncc2cc(Nc3ccc(F)cc3F)ccc12 [Example 8, N-(2,4-difluorophenyl)-1-(2-methylphenyl)-6-phthalazinamine]
- IC50 [1]: 1.7 nM
- IC50 (human p38α): 0.2 nM

Structure (SMILES): Cc1cccc(Nc2ccc3c(-c4ccc(F)cc4C)nncc3c2)n1 [Example 15, 1-(4-fluoro-2-methylphenyl)-N-(6-methyl-2-pyridinyl)-6-phthalazinamine]
- IC50 [1]: 11.4 nM
- IC50 (human p38α): 1.5 nM

Structure (SMILES): Cc1cc(F)ccc1-c1nncc2cc(Nc3ccc(F)cc3C(F)(F)F)ccc12 [Example 13, 1-(4-fluoro-2-methylphenyl)-N-(4-fluoro-2-(trifluoromethyl)phenyl)-6-phthalazinamine]
- IC50 [1]: 9.9 nM
- IC50 (human p38α): 0.5 nM

From patent US8497269B2, “Phthalazine compounds as p38 map kinase modulators and methods of use thereof” (Amgen Inc., priority 2008, dated 2013)
